Experimental data taken from patent US20230136824A1, “N-N-[…] (DMT) AND DMT ANALOG COMPOSITIONS, METHODS OF MAKING, AND METHODS OF USE THEREOF” (ATAI Life Sciences AG, priority 2021, published 2023).
Converted amounts (≈) assume the structure as drawn.

How the values were obtained:
[1] = DMT solubility in various solvents (super saturated mixture, HPLC); format: physicochemical
Excerpt: Solubility studies of DMT have been carried out in various solvents by preparing super saturated mixture and analyzed using HPLC.
This warrants a strong need for improvement solubility of DMT API in the film formulation for better bioavailability.

[2] = Excipient compatibility of DMT binary mixtures at 50° C./75% RH (HPLC impurity levels); format: physicochemical
Protocol: Further, several excipients for formulating transmucosal films with desired properties have been analyzed for compatibility with DMT at 50° C./75% RH utilizing HPLC method to detect impurity levels.

[3] = Forced degradation study of DMT under stress conditions (HPLC); format: physicochemical; details: for % Assay: exposure overnight
Protocol: A forced degradation study of DMT was performed under different stress conditions and samples are analyzed using HPLC.
It is important to incorporate antioxidant(s) in the formulation to prevent oxidation of DMT during the shelf life and to form stable films.

[4] = Ex-vivo permeation through porcine buccal mucosa (Franz diffusion cell); format: in vitro ADME; details: 180 minutes, phosphate buffered solution 0.01M pH=7
Protocol: Further, permeability of DMT through prepared films were evaluated using ex-vivo permeation study i.e., using porcine buccal mucosa as presented below. Ex-vivo permeation is well studied using Franz diffusion cell or Using chambers utilizing animal mucosa (e.g., Pig or sheep buccal mucosa) or by using commercially available synthetic membranes (e.g., Permeapad®). The Franz diffusion cell consists of two compartments; one is the donor compartment, the other is the receptor compartment of 18 mL capacity and having 0.785 cm^2 effective diffusion area. The temperature is maintained at 37° C. by water jacket. […]
Further, all prepared films are evaluated for the permeability through pig buccal mucosa and compared against the permeability of API dispersion in PBS pH 7.0 as presented in FIG. 6. In one aspect, the present invention involves a DMT polymeric film that releases about 5% or less DMT in 60 minutes, about 15% DMT or less in 180 minutes when measured through pig mucosa in phosphate buffered solution 0.01M pH=7, as shown in FIG. 6.
Further, permeability of DMT through prepared films were evaluated using ex-vivo permeation study i.e., porcine buccal mucosa or Permeapad® as presented below.

[5] = pH of the donor chamber media in permeation study; format: physicochemical; details: PBS pH 7.0
[6] = Solubility of buccal film and neat API in Phosphate buffer saline pH 6.8; format: physicochemical
[7] = Physicochemical constants of DMT (log P, pKa, glass transition temperature); details: amorphous N,N-DMT
Excerpt: DMT free base is a lipophilic molecule (log P−2.573) with a small backbone (Mol wt. 188.27 g/mol).
The pH of the film plays a very important role in balancing its ionized vs unionized form at the site. In the present invention microenvironmental pH is maintained to achieve balance between ionized and unionized form and thus the permeation across the mucosa.

CN(C)CCc1c[nH]c2ccccc12 [DMT, N, N-Dimethyltryptamine]
solubility ([1]; Saliva Buffer (pH 6.8)): 2.3 mg/mL (≈ 12.2 mM)
solubility ([1]; acetone): > 126 mg/mL
solubility ([1]; acetonitrile): > 94 mg/mL
solubility ([1]; ethanol): > 98 mg/mL
solubility ([1]; isopropyl alcohol water): > 98 mg/mL
solubility ([1]; methanol): > 98 mg/mL
solubility ([1]; methanol:water (50:50)): 26 mg/mL (≈ 138 mM)
solubility ([1]; methanol:water (70:30)): > 50 mg/mL
solubility ([1]; methyl isobutyl ketone): > 90 mg/mL
solubility ([1]; p-dioxane): > 104 mg/mL
solubility ([1]; tetrahydrofuran): > 106 mg/mL
solubility ([1]; water): < 1 mg/mL
No. of Impurities [2]: 6
Total Impurities % [2]: 2.17%
Oxidation upon force degradation study [3]: highly prone to oxidation
% Assay ([3]; 0.1N HCl): 99.7%
% Assay ([3]; 0.1N NaOH): 99.4%
% Assay ([3]; 3% peroxide): 26.6%
% Assay ([3]; 70° C.): 98.5%
DMT released through pig mucosa [4]: about 33%
pH of the donor chamber media [5]: 9.5
solubility [6]: 2.3 mg/mL (≈ 12.2 mM)
Glass transition temperature [7]: −18 °C
